Assay [1] deals with Klebs.pneumo. 4200. The experiment in a line: In vivo activity (ED50) against Klebs.pneumo. 4200. The settings on record: read-out: ED50.
Assay [2] concerns Sal. paratyphl ATCC 12176. The experiment in a line: In vitro antibacterial activity (MIC). It is filed as cell-based. As to the method: (§1) The compounds of this invention have antibacterial activity against Gram-positive and Gram-negative organisms. Minimum inhibitory concentrations (MIC's) ranged from 0.4 to >200 μg/ml in in vitro testing.
For assay [3], the system named is S.aureus SK 23390. The experiment in a line: In vitro antibacterial activity (MIC). It is filed as cell-based. Particulars: Staphylococcus aureus, SK23390; S.aureus SK 23390, in vitro; read-out: MIC. As to the method:
as §1

The subject of assay [4] is Kleb. pneumo. SK 1200. The experiment in a line: In vitro antibacterial activity (MIC). It is filed as cell-based. Particulars: Kleb. pneumo. SK 1200, in vitro; read-out: MIC. As to the method:
as §1

The test system of assay [5] is S.aureus HH 127. The experiment in a line: In vitro antibacterial activity (MIC). The class given is cell-based. The settings on record: Staphylococcus aureus, HH127; S.aureus HH 127, in vitro; read-out: MIC. As to the method:
as §1

Assay [6] has as its system Shig. paradys HH 112. The experiment in a line: In vitro antibacterial activity (MIC). It is filed as cell-based. As to the method:
as §1

Assay [7] has as its system Proteus morgani 179. The experiment in a line: In vitro antibacterial activity (MIC). Particulars: Proteus morgani 179, in vitro; read-out: MIC. It is filed as cell-based. As to the method:
as §1

Assay [8] relates to E.coli SK 12140. The experiment in a line: In vitro antibacterial activity (MIC). The class given is cell-based. Particulars: Escherichia coli, SK12140; E.coli SK 12140, in vitro; read-out: MIC. As to the method: as §1
For assay [9], the system named is Entero. aerog. ATCC 13048. The experiment in a line: In vitro antibacterial activity (MIC). It is filed as cell-based. Particulars: Entero. aerog. ATCC 13048, in vitro; read-out: MIC. As to the method: as §1
For assay [10], the system named is S.aureus Villaluz. The experiment in a line: In vitro antibacterial activity (MIC). It is filed as cell-based. The settings on record: Staphylococcus aureus. On the procedure: as §1
Assay [11] concerns Strep. faecalis HH 34358. The experiment in a line: In vitro antibacterial activity (MIC). The class given is cell-based. The settings on record: Enterococcus faecalis, HH34358; Strep. faecalis HH 34358, in vitro. On the procedure: as §1
In assay [12] the test system is E. coli HH 33779. The experiment in a line: In vitro antibacterial activity (MIC). The settings on record: Escherichia coli, HH33779; E. coli HH 33779, in vitro; read-out: MIC. The class given is cell-based. On the procedure:
as §1

Assay [13] relates to Kleb. pneumo. SK 4200. The experiment in a line: In vitro antibacterial activity (MIC). It is filed as cell-based. The settings on record: Kleb. pneumo. SK 4200, in vitro; read-out: MIC. As to the method: as §1
Assay [14] concerns E.coli 12140. The experiment in a line: In vivo activity (ED50) against E.coli 12140.
[15] abbreviates: Escherichia coli, 12140, po, E.coli 12140, p.o.
Where [16] appears, read: Escherichia coli, 12140, sc, E.coli 12140, s.c.
Where [17] appears, read: Shig. paradys HH 112, in vitro, read-out: MIC.

Molecules are shown by their SMILES. Converted amounts (≈) assume the structure as drawn. Read-outs that look alike come from different tables or passages of the source.

In patent US4022895A, “Substituted phenylglycylcephalosporins” (SmithKline Corporation, priority 1975, dated 1977) one finds ED50 and MIC data, which are given here for 5 molecules.

What is called ED50 is the dose at which the effect has come halfway, by size or by number of responders. One may read the MIC as the smallest concentration in the dilution series that meets the test's criterion for growth inhibition.

On to `COC(=O)COc1ccc([C@@H](N)C(=O)NC2C(=O)N3C(C(=O)O)=C(CSc4nnnn4C)CSC23)cc1` (stereo partly drawn) [Compound No. 26436, 7-[D-α-Amino-α-(4'-carbomethoxymethoxyphenyl)acetamido]-3-(1-methyl-1,2,3,4-tetrazol-5-ylthiomethyl)-3-cephem-4-carboxylic acid], for which the ED50 in assay [1] (po, Klebs.pneumo. 4200, p.o.) was found to be 5.5 mg/kg; in assay [1] (sc, Klebs.pneumo. 4200, s.c.) it was 1.5 mg/kg; in [14] (setting [15]), 9.6 mg/kg; in assay [14] (setting [16]), 1.2 mg/kg. In addition, the MIC in assay [2] is 3.1 µg/mL (≈ 5.64 µM); in assay [3] it was 6.3 µg/mL (≈ 11.5 µM); in assay [4], 6.3 µg/mL (≈ 11.5 µM); in [5] it was 6.3 µg/mL (≈ 11.5 µM); in assay [6] it was 6.5 µg/mL (≈ 11.8 µM); in assay [7], 50 µg/mL (≈ 91 µM). Further, the minimal inhibitory concentration (MIC) was 12.5 µg/mL (≈ 22.7 µM) in assay [8]; 25 µg/mL (≈ 45.5 µM) in assay [9]; 25 µg/mL (≈ 45.5 µM) in [10]; 50 µg/mL (≈ 91 µM) in assay [11]; 12.5 µg/mL (≈ 22.7 µM) in assay [12]; 6.3 µg/mL (≈ 11.5 µM) in assay [13].
For `Cn1nnnc1SCC1=C(C(=O)O)N2C(=O)C(NC(=O)[C@H](N)c3ccc(OCC(=O)O)cc3)C2SC1` (stereo partly drawn) [Compound No. 42526, 7-[D-α-Amino-α-(4'-carboxymethoxyphenyl)acetamido]-3-(1-methyl-1,2,3,4-tetrazol-5-ylthiomethyl)-3-cephem-4-carboxylic acid], the median effective dose (ED50) in assay [1] (po, Klebs.pneumo. 4200, p.o.) is 33 mg/kg; in [1] (sc, Klebs.pneumo. 4200, s.c.) it was 5.4 mg/kg; in assay [14] (setting [15]), above 50 mg/kg; in assay [14] (setting [16]) it was 9.5 mg/kg. Moreover, the MIC in [2] amounted to 6.3 µg/mL (≈ 11.8 µM); in [3], 25 µg/mL (≈ 46.7 µM); in assay [4], 3.1 µg/mL (≈ 5.79 µM); in assay [5], 25 µg/mL (≈ 46.7 µM); in assay [6] (setting [17]), 6.3 µg/mL (≈ 11.8 µM); in [7] it was 100 µg/mL (≈ 187 µM). Further, the MIC was 6.3 µg/mL (≈ 11.8 µM) in assay [8]; 12.5 µg/mL (≈ 23.3 µM) in [9]; 200 µg/mL (≈ 373 µM) in assay [10]; above 200 µg/mL in assay [11]; 12.5 µg/mL (≈ 23.3 µM) in assay [12]; 3.1 µg/mL (≈ 5.79 µM) in [13].
Consider `CC(=O)OCC1=C(C(=O)O)N2C(=O)C(NC(=O)[C@H](N)c3ccc(OCC(=O)O)cc3)C2SC1` (stereo partly drawn) [Compound No. 60326, 7-[D-α-Amino-α-(4'-carboxymethoxyphenyl)acetamido]-cephalosporanic acid], for which the ED50 in assay [1] (po, Klebs.pneumo. 4200, p.o.) worked out at 63 mg/kg; in assay [1] (sc, Klebs.pneumo. 4200, s.c.), 12.5 mg/kg; in assay [14] (setting [15]) it was 200 mg/kg; in [14] (setting [16]), 11.2 mg/kg. Further, the minimal inhibitory concentration (MIC) in assay [2] is 3.1 µg/mL (≈ 6.47 µM); in [3], 12.5 µg/mL (≈ 26.1 µM); in [4], 6.3 µg/mL (≈ 13.1 µM); in [5] it was 12.5 µg/mL (≈ 26.1 µM); in [7] it was above 200 µg/mL; in assay [8] it was 6.3 µg/mL (≈ 13.1 µM). Also, the MIC came to 25 µg/mL (≈ 52.1 µM) in assay [9]; 200 µg/mL (≈ 417 µM) in assay [10]; 200 µg/mL (≈ 417 µM) in assay [11]; 25 µg/mL (≈ 52.1 µM) in assay [12]; 6.3 µg/mL (≈ 13.1 µM) in [13].
Take `Cn1nnnc1SCC1=C(C(=O)O)N2C(=O)C(NC(=O)[C@H](N)c3ccc(NCC(=O)O)cc3)C2SC1` (stereo partly drawn) [Compound No. 76746, 7-[D-α-Amino-α-(4'-carboxymethylaminophenyl)acetamido]-3-(1-methyl-1,2,3,4-tetrazol-5-ylthiomethyl)-3-cephem-4-carboxylic acid]: the MIC in assay [2] stood at 3.1 µg/mL (≈ 5.8 µM); in [3], 6.3 µg/mL (≈ 11.8 µM); in [4], 1.6 µg/mL (≈ 2.99 µM); in assay [5], 6.3 µg/mL (≈ 11.8 µM); in [6] (setting [17]), 3.1 µg/mL (≈ 5.8 µM); in [7] it was 6.3 µg/mL (≈ 11.8 µM). The MIC in [8] is 1.6 µg/mL (≈ 2.99 µM); in [9], 1.6 µg/mL (≈ 2.99 µM); in assay [10] it was 50 µg/mL (≈ 93.5 µM); in [11], 100 µg/mL (≈ 187 µM); in [12], 1.6 µg/mL (≈ 2.99 µM); in [13], 0.8 µg/mL (≈ 1.5 µM).
With `NC(=O)COc1ccc([C@@H](N)C(=O)NC2C(=O)N3C(C(=O)O)=C(CSc4c[nH]nn4)CSC23)cc1` (stereo partly drawn) [Compound No. 91726, 7-[D-α-Amino-α -(4'-carbamylmethoxyphenyl)acetamido]-3-(1,2,3-triazol-4-ylthiomethyl)-3-cephem-4-carboxylic acid], the median effective dose (ED50) stood at 13.6 mg/kg in assay [1] (po, Klebs.pneumo. 4200, p.o.); 12.5 mg/kg in [1] (sc, Klebs.pneumo. 4200, s.c.); 25 mg/kg in assay [14] (setting [15]); 14 mg/kg in [14] (setting [16]). The minimal inhibitory concentration (MIC) was determined as 6.3 µg/mL (≈ 12.1 µM) in assay [2]; 6.3 µg/mL (≈ 12.1 µM) in assay [3]; 12.5 µg/mL (≈ 24.1 µM) in assay [4]; 6.3 µg/mL (≈ 12.1 µM) in assay [5]; 6.3 µg/mL (≈ 12.1 µM) in assay [6] (setting [17]); 50 µg/mL (≈ 96.2 µM) in [8]. The MIC in [9] is 50 µg/mL (≈ 96.2 µM); in assay [10], 50 µg/mL (≈ 96.2 µM); in [11] it was 200 µg/mL (≈ 385 µM); in assay [12], 25 µg/mL (≈ 48.1 µM); in assay [13] it was 12.5 µg/mL (≈ 24.1 µM).
